For this assay, the target named is c-SRC (h) (Homo sapiens, UniProt P12931). Briefly: Src Kinase Assay (33P-ATP filter-binding, Cdc2 peptide substrate). Format: biochemical. As to conditions: compound at 10 μM; c-SRC (h) 5-10 mU, 40 minutes at room temperature. How it is done:
This example illustrated Src Kinase Assays. Briefly, in a final reaction volume of 25 μL, c-SRC (h) (5-10 mU) is incubated with 8 mM MOPS pH 7.0, 0.2 mM EDTA, 250 μM KVEKIGEGTYGVVYK (Cdc2 peptide), 10 mM MgAcetate and [g-33P-ATP] (specific activity approx. 500 cpm/pmol, concentration as required). The reaction is initiated by the addition of the MgATP mix. After incubation for 40 minutes at room temperature, the reaction is stopped by the addition of 5 μL of a 3% phosphoric acid solution. 10 μL of the reaction is then spotted onto a P30 filtermat and washed three times for 5 minutes in 75 mM phosphoric acid and once in methanol prior to drying and scintillation counting.

Each structure is given as a SMILES string.

The term inhibition denotes the drop in the measured response relative to a control, in per cent.

Chain of c-SRC (h) (P12931 whole entry): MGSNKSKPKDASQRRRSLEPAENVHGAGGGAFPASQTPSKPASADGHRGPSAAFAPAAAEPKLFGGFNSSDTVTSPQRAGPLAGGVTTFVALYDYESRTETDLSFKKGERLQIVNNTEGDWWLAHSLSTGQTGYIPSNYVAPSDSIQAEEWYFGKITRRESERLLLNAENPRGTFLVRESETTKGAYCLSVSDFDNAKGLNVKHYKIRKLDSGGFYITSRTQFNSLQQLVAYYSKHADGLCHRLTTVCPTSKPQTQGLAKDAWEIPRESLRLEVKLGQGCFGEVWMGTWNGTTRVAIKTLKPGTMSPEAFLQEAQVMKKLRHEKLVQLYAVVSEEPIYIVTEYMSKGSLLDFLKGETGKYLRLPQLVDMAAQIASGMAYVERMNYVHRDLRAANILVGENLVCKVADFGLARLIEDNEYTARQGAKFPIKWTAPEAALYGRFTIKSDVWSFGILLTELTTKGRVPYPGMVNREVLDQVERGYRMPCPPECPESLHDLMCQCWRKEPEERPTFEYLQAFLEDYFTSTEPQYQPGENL

In the case of `Cc1nc(Nc2ncc(C(=O)Nc3c(C)cccc3Cl)s2)nc(N2CCN(CCO)CC2)n1` [Example 5], the inhibition at 10 µM was more than 90%.

`Cc1nc(Nc2ncc(C(=O)Nc3c(C)cccc3Cl)s2)nc(N2CCN(C)CC2)n1` [Example 7] returned an inhibition at 10 µM of more than 90%. Take `Cc1nc(Nc2ncc(C(=O)Nc3c(C)cccc3Cl)s2)nc(N2CCN(Cc3ccncc3)CC2)n1` [Example 10]: the inhibition at 10 µM was more than 90%.

Consider `Cc1nc(Nc2ncc(C(=O)Nc3c(C)cccc3Cl)s2)nc(N2CCC(CO)CC2)n1` [Example 11], for which the inhibition at 10 µM is more than 90%. Consider `Cc1nc(Nc2ncc(C(=O)Nc3c(C)cccc3Cl)s2)nc(N2CCNCC2)n1` [Example 13], for which the inhibition at 10 µM is more than 90%. Consider `Cc1nc(Nc2ncc(C(=O)Nc3c(C)cccc3Cl)s2)nc(N2CCN(CCC#N)CC2)n1` [Example 14], for which the inhibition at 10 µM was more than 90%. For the compound `Cc1nc(Nc2ncc(C(=O)Nc3c(C)cccc3Cl)s2)nc(N2CCN(c3ccccc3)CC2)n1` [Example 17], the inhibition at 10 µM is more than 90%.

`Cc1nc(Nc2ncc(C(=O)Nc3c(C)cccc3Cl)s2)nc(N2CCN(c3cccc(C(F)(F)F)c3)CC2)n1` [Example 18] had an inhibition at 10 µM of more than 90%.

Regarding `Cc1nc(Nc2ncc(C(=O)Nc3c(C)cccc3Cl)s2)nc(N2CCNC(=O)C2)n1` [Example 19], the inhibition at 10 µM was more than 90%. The compound `Cc1nc(NCCCn2ccnc2)nc(Nc2ncc(C(=O)Nc3c(C)cccc3Cl)s2)n1` [Example 20] yielded an inhibition at 10 µM of more than 90%. For the compound `CCc1nc(Nc2ncc(C(=O)Nc3c(C)cccc3Cl)s2)nc(N2CCN(CCO)CC2)n1` [Example 23], the inhibition at 10 µM is more than 90%. With `CCc1nc(Nc2ncc(C(=O)Nc3c(C)cccc3Cl)s2)nc(N2CCN(c3ccncc3)CC2)n1` [Example 24], the inhibition at 10 µM is more than 90%. Regarding `CCc1nc(Nc2ncc(C(=O)Nc3c(C)cccc3Cl)s2)nc(N2CCOCC2)n1` [Example 25], the inhibition at 10 µM is more than 90%. `CCc1nc(NCCN(C)C)nc(Nc2ncc(C(=O)Nc3c(C)cccc3Cl)s2)n1` [Example 26] came in with an inhibition at 10 µM of more than 90%. As for `CCc1nc(NCCO)nc(Nc2ncc(C(=O)Nc3c(C)cccc3Cl)s2)n1` [Example 27], the inhibition at 10 µM was more than 90%. Compound `CCc1nc(NCCCN2CCOCC2)nc(Nc2ncc(C(=O)Nc3c(C)cccc3Cl)s2)n1` [Example 28] displayed an inhibition at 10 µM of more than 90%. Turning to `Cc1cccc(Cl)c1NC(=O)c1cnc(Nc2nc(-c3ccccc3)nc(N3CCN(CCO)CC3)n2)s1` [Example 31], the inhibition at 10 µM was more than 90%. `Cc1cccc(Cl)c1NC(=O)c1cnc(Nc2nc(CC(C)C)nc(N3CCN(CCO)CC3)n2)s1` [Example 34] registered an inhibition at 10 µM of more than 90%. The compound `Cc1nc(Nc2ncc(C(=O)Nc3c(C)cccc3Cl)o2)nc(N2CCNCC2)n1` [Example 38] returned an inhibition at 10 µM of more than 90%. `CCc1nc(Nc2ncc(C(=O)Nc3c(C)cccc3Cl)o2)nc(N2CCN(CCO)CC2)n1` [Example 40] had an inhibition at 10 µM of more than 90%.

Compound `CCc1nc(Nc2nnc(C(=O)Nc3c(C)cccc3Cl)o2)nc(N2CCN(CCO)CC2)n1` [Example 52] had an inhibition at 10 µM of less than 50%.

`CCc1nc(Nc2ncc(C(=O)Nc3c(C)cccc3Cl)n2C)nc(N2CCN(C)CC2)n1` [Example 59] had an inhibition at 10 µM of more than 90%. The value for `CCc1nc(NCCN(C)C)nc(Nc2ncc(C(=O)NC3CC3)s2)n1` [Example 63] was less than 50%; that for `CCc1nc(NCCN(C)C)nc(Nc2ncc(C(=O)NC(C)C)s2)n1` [Example 67] was less than 50%. In the case of `CCc1nc(NCCN(C)C)nc(Nc2ncc(C(=O)Nc3c(C)cccc3C)s2)n1` [Example 71], the inhibition at 10 µM is more than 90%. In turn, `CCc1nc(NCCN(C)C)nc(Nc2ncc(C(=O)Nc3c(C)cc(C)cc3C)s2)n1` [Example 75] displayed an inhibition at 10 µM of more than 90%. Consider `CCc1nc(NCCN(C)C)nc(Nc2ncc(C(=O)Nc3ccccc3)s2)n1` [Example 79], for which the inhibition at 10 µM was 50 to 90%.

`CN1CCN(c2ncnc(Nc3ncc(CC(=O)Nc4cccc(F)c4)s3)n2)CC1` [Example 88] registered an inhibition at 10 µM of less than 50%. Take `O=C(Cc1cnc(Nc2ncnc(N3CCCCC3)n2)s1)Nc1cccc(F)c1` [Example 89]: the inhibition at 10 µM is less than 50%.

`Cc1cccc(Cl)c1NC(=O)Cc1cnc(Nc2ncnc(N3CCN(C)CC3)n2)s1` [Example 92] gave an inhibition at 10 µM of less than 50%. Turning to `CCc1nc(Nc2ncc(CC(=O)Nc3c(C)cccc3Cl)s2)nc(N2CCN(CCO)CC2)n1` [Example 93], the inhibition at 10 µM was less than 50%. The figure for `CCc1nc(NCCN(CC)CC)nc(Nc2ncc(C(=O)Nc3c(C)cccc3Cl)s2)n1` [Example 94] is more than 90%.

`CN1CCN(c2ncnc(Nc3cc(CC(=O)Nc4cccc(F)c4)[nH]n3)n2)CC1` [Example 104] came in with an inhibition at 10 µM of less than 50%. The compound `CN(C)CCCOc1ncnc(Nc2cc(CC(=O)Nc3cccc(F)c3)[nH]n2)n1` [Example 105] had an inhibition at 10 µM of less than 50%. The compound `Cc1cccc(Cl)c1NC(=O)Cc1cc(Nc2ncnc(N3CCN(C)CC3)n2)n[nH]1` [Example 106] had an inhibition at 10 µM of less than 50%.

Turning to `Cc1cccc(Cl)c1NC(=O)Cc1cc(Nc2ncnc(OCCCN(C)C)n2)n[nH]1` [Example 107], the inhibition at 10 µM is less than 50%. Consider `CN1CCN(c2ncnc(Nc3cc(CC(=O)NCc4ccc(F)cc4)[nH]n3)n2)CC1` [Example 108], for which the inhibition at 10 µM is less than 50%. The figure for `CN(C)CCCOc1ncnc(Nc2cc(CC(=O)NCc3ccc(F)cc3)[nH]n2)n1` [Example 109] is less than 50%; for `CN(C)CCN(C)c1ncnc(Nc2cc(CC(=O)Nc3cccc(F)c3)[nH]n2)n1` [Example 110] it is less than 50%; for `COCC(C)Nc1ncnc(Nc2cc(CC(=O)Nc3cccc(F)c3)[nH]n2)n1` (centres unmarked) [Example 111] it is less than 50%.

With `O=C(Cc1cc(Nc2ncnc(Nc3ccccc3)n2)n[nH]1)Nc1cccc(F)c1` [Example 113], the inhibition at 10 µM is less than 50%.

The record behind these values is US20120238576A1, “Triazine Derivatives and their Therapeutical Applications” (CALIFORNIA CAPITAL EQUITY, LLC, priority 2009, published 2012).
